Results on 2 molecules are retold here after patent US20240335381A1, “Transdermal Microemulsion Delivery Systems for Alcohol-Soluble Species Including Nonderivatized Hormones” (Quicksilver Scientific, Inc., priority 2021, published 2024).

What is called solubility is the concentration that dissolves in the medium under given conditions.

In brackets after ≈: the same amount, converted by molar mass. Where two headings read alike, the source gives them in different places.

Data set [1] in a line: Solubility in ethanol and in MCT oil. The format is physicochemical. From the text:
An alcohol-soluble species is a species that is insoluble in water and has a greater solubility in ethanol than in medium chain triglyceride (MCT) oils. […] Alcohol-soluble species are preferably pharmacologically active, more preferably are a drug or a supplement, and neither include nor are water. Thus, liquids and solids may exist that technically are soluble in alcohol, but because they also are soluble in water or more or equivalently soluble in MCT oils than in ethanol are not “alcohol-soluble species”.
Solubilized means that the alcohol-soluble species to be delivered is in the solution of the droplet. […] Thus, if either average particle diameters greater than 200 nm or precipitated crystals visible to the naked eye form, the alcohol-soluble species is not solubilized in the solution of the droplet. If an alcohol-soluble species is not solubilized in the solution, it is insoluble in the solution. In many respects, solubility may be thought of as a concentration dependent continuum. For example, the following descriptive terms may be used to express solubility of a solute in a solvent (grams solid/mL of solvent) at 25 degrees Celsius: […]

For data set [2] the following is noted: cited from earlier work.

Regarding `C[C@]12CC[C@H](O)CC1=CC[C@@H]1[C@@H]2CC[C@]2(C)C(=O)CC[C@@H]12` [DHEA, dehydroepiandrosterone (3-beta-hydroxyandrosteron-5-en-17-one)], the “solubility level in MCT oil” value in data set [1] (MCT oil) is “sparingly soluble”. Also, the “solubility level in ethanol” value in data set [1] (ethanol) was “freely soluble”. The solubility in data set [1] (ethanol, organic solvent or mixture, read-out: solubility in ethanol) is ~150 mg/mL (≈ 520 mM); in data set [1] (medium chain triglyceride (MCT) oil, oil or lipid, MCT oil, read-out: solubility in MCT oil), ~10 mg/mL (≈ 34.7 mM).
`C[C@]12CC[C@H]3[C@@H](CCC4=CC(=O)CC[C@@]43C)[C@@H]1CC[C@@H]2O` [testosterone]: the “time within which the remainder is metabolized from the blood” value in data set [2] (after introduction) is on record as “three”. For the same molecule, in data set [2] (within the first hour of introduction), the “share metabolized from the blood” value is “about 90%”.
